Five compounds from US8530465B2, “1, 2-disubstituted amido-anthraquinone derivatives, preparation method and application thereof” (National Defense Medical Center, priority 2010, dated 2013) can be followed below.

The test system of assay [1] is hTERT. In words: Secreted alkaline phosphatase (SEAP) assay, PhTERT-SEAP (H1299). It is filed as cell-based. The settings on record: Homo sapiens, 24 hours; for activity at 1 µM: NCI-H1299, Conc. 1 μM, read-out: Relative SEAP activity (%); for activity at 10 µM: NCI-H1299, Conc. 10 μM; for activity at 10 µM / activity at 100 µM: read-out: Relative SEAP activity (%) (converted); for activity at 100 µM: NCI-H1299, Conc. 100 μM. A digest of the protocol: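 Stable H1299 clone carrying the −3338 to +1 bp hTERT promoter upstream of SEAP; ~10^4 cells/well treated with varying drug amounts for 24 h at 37° C. Media heat-treated 65° C. 10 min, mixed with diethanolamine/MgCl2/L-homoarginine buffer and 12 mM p-nitrophenyl phosphate final; SEAP activity taken as rate of A405 increase.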

The subject of assay [2] is RPMI-8226. Put plainly: NCI drug screen, RPMI-8226. The settings on record: RPMI-8226 (Leukemia); 1.00E−5 Molar. It is filed as cell-based, human. On the procedure: (§1) In brief, cellular protein levels were determined after 48 hours of drug exposure by sulforhodamine B colorimetry. Through the use of a time 0 cell control, the cell growth can be determined for each cell line thus allowing calculations of the 50% growth inhibitory concentration (GI50), the total growth inhibition (TGI), and the 50% lethal concentration (LC50). Comparison to plates not exposed to drug permits determination of concentration and times of exposure conferring 50% net growth inhibition (GI50), TGI, and 50% cell kill (LC50).
(§2) The screening system in United State National Cancer Institute (NCI) is consisted of 60 kinds of different human cancer cells, which can be used to assay the growth-inhibiting ability or cell toxicity of a compound against various cancer and tumor at a certain concentration.

The subject of assay [3] is 60 kinds of different human cancer cells. In words: NCI in vitro 60-cell Drug Screen, whole panel. The note with it: for Growth Percent, Mean: mean over tested cell lines; for Growth Percent, Mean / growth-inhibiting effect against cancer cells, by cancer type: 1.00E−5 Molar; for growth-inhibiting effect against cancer cells, by cancer type: NCI's screen. It is filed as cell-based. On the procedure: as §1
From the data analysis it follows that approximately 95% of the actives (potent anticancer drugs) from the 60 cell line screen can be identified. By these criteria, five compounds (each with its certification number, refer to FIG. 4) of the invention were reported that having anticancer activity.
as §2

The subject of assay [4] is H1299. In words: MTT assay, PhTERT-SEAP (H1299). It is filed as cell-based, human. The settings on record: H1299; SEAP and MTT analysis. A digest of the protocol:
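Cultured cells received MTT for 4 h at 37 °C, then lysis buffer overnight at 37 °C. Optical density was read at 550 nm.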

Consider `Cc1ccc(C(=O)Nc2ccc3c(c2NC(=O)c2ccc(C)cc2)C(=O)c2ccccc2C3=O)cc1` [CC-04, 1,2-bis-(4-methylbenzamido)-anthraquinone], for which, in assay [1], the activity at 1 µM was determined as 108 ± 9.03%, the activity at 10 µM was 97.1% and the activity at 100 µM is 30.9%. The “Growth Percent” value in assay [2] is 101.77%. In addition, in assay [3], the “Growth Percent, Mean” value is 96.19%.
Consider `Cc1ccc(C(=O)Nc2c(NC(=O)CCl)ccc3c2C(=O)c2ccccc2C3=O)cc1` [CC-12, 1-(4-methylbenzamido)-2-(chloroacetamido)-anthraquinone], for which, in assay [1], the activity at 1 µM turned out to be 110 ± 2.99%, the activity at 10 µM was -2.49% and the activity at 100 µM was -2.47%. In addition, in assay [3], the “growth-inhibiting effect against cancer cells, by cancer type” value (“growth-inhibiting effect” for short) is “exhibited growth-inhibiting effect against cancer cells such as leukemia, non-small cell lung cancer, colon cancer, central nervous system (CNS) cancer, melanoma, ovarian cancer, renal cancer, prostate cancer, breast cancer” and the “Growth Percent, Mean” value was −1.96%.
Consider `O=C(CCl)Nc1ccc2c(c1NC(=O)Cc1ccccc1)C(=O)c1ccccc1C2=O` [CC-23, 1-[2-(phenyl)acetylamino]-2-(chloroacetamido)-anthraquinone], for which, in assay [1], the activity at 1 µM came out at 84.8 ± 3.12%, the activity at 10 µM is 9.49% and the activity at 100 µM is 7.43%. In addition, in assay [3], the “growth-inhibiting effect” value is “could inhibit the cancer cell growth of leukemia and melanoma”; the “Growth Percent, Mean” value is 73.78%.
On to `Cc1ccc(C(=O)Nc2c(NC(=O)CN3CCCC3)ccc3c2C(=O)c2ccccc2C3=O)cc1` [CC-38, 1-(4-methylbenzamido)-2-[2-(tetrahydro-1H-1-pyrrolyl)acetylamino]-anthra quinone], for which, in assay [1], the activity at 1 µM was 81.7 ± 4.8%, the activity at 10 µM is 59.1% and the activity at 100 µM was 3.93%. Moreover, in assay [3], the “Growth Percent, Mean” value was found to be 74.53%.
Take `Cc1ccc(C(=O)Nc2c(NC(=O)CN3CCN(C)CC3)ccc3c2C(=O)c2ccccc2C3=O)cc1` [CC-43, 1-(4-methylbenzamido)-2-[2-(4-methylpiperazino)acetylamino]-anthraquinone]: in assay [1], the activity at 1 µM is 77.4 ± 1.5%, the activity at 10 µM is 13.4% and the activity at 100 µM is 3.15%. Besides, the “inhibitory activity among compounds CC-35 to CC-50” value in assay [4] is “higher inhibitory activity”. For the same compound, in assay [3] (Homo sapiens, 60 cell, NCI screen, FIG. 6, cell line not stated, read-out: 50% net growth inhibition (GI50)), the GI50 stood at 130 nM. Also, in assay [3], the “growth-inhibiting effect” value was “could inhibit the cancer cell growth of leukemia, melanoma, and ovarian cancer”; the “Growth Percent, Mean” value came out at 46.71%.
